Measured values from EP1377579B1 (Aventis Pharmaceuticals Inc., priority 2000, dated 2002).
Structures can show the parent of a compound that is named as a salt. Where two headings read alike, the source gives them in different places.

Key:
[1] = molecular target: cdk1/cyclin B (Homo sapiens, UniProt P06493); assay: Cyclin-dependent kinase assay, cdk1/cyclin B
[2] = tested on: PC-3; assay: In vitro proliferation assay (MTT), PC-3; format: cell-based, human; conditions: value (SD, n) where given, read-out: PC-3 Prostate (IC50 µM)
Outline: (§1)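 Tetrazolium (MTT) reduction measures live cells remaining after 3 days with test compound, following overnight attachment at 1000–2500 cells/well. Dye is taken up in DMSO and read at 570 nm.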

[3] = tested on: MDA-MB-435; assay: In vitro proliferation assay (MTT), MDA-MB-435; format: cell-based, human; conditions: value (SD, n) where given, read-out: MB-435 Breast (IC50 µM)
Outline: as §1

[4] = molecular target: cdk4/cyclin D1 (Homo sapiens, UniProt P11802); assay: Cyclin-dependent kinase assay, cdk4/cyclin D1; format: biochemical
[5] = molecular target: cdk2/cyclin E (Homo sapiens, UniProt P24941); assay: Cyclin-dependent kinase assay, cdk2/cyclin E
[6] = CDK1 IC50, nM, Histone H1, 10 µM ATP
[7] = Homo sapiens, MDA-MB-435, MTT assay
[8] = cyclin D1/cdk4, GST-pRb substrate, 10 µM ATP
[9] = CDK2 IC50, nM, GST-pRb substrate, 10 µM ATP

Chain of cdk4/cyclin D1 (P11802 whole entry): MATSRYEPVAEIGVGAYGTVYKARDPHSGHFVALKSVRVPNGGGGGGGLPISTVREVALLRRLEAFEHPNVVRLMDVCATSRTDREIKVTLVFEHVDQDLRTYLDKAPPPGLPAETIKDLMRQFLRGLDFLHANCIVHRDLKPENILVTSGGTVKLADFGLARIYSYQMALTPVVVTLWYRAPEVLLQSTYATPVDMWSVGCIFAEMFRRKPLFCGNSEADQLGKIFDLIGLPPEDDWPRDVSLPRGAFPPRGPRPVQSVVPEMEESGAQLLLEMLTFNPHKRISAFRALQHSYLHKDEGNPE
Chain of cdk4/cyclin D1 (P24385 whole entry partner): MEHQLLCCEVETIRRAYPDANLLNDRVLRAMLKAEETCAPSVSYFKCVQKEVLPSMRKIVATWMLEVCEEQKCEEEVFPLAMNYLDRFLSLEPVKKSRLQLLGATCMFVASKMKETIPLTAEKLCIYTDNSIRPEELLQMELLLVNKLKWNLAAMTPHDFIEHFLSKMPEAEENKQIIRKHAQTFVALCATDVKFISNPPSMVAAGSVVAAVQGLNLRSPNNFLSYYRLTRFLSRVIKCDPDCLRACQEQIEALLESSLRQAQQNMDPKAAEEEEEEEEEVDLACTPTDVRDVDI
Chain of cdk1/cyclin B (P06493 whole entry): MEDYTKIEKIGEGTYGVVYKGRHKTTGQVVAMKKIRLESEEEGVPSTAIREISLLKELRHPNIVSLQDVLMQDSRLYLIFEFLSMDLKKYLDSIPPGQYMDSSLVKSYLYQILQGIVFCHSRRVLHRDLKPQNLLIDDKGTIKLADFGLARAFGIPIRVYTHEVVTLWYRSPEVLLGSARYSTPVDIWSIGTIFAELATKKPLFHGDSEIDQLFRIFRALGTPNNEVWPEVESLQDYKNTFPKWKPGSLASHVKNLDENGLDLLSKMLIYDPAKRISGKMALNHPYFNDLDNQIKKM
Chain of cdk1/cyclin B (P14635 whole entry partner): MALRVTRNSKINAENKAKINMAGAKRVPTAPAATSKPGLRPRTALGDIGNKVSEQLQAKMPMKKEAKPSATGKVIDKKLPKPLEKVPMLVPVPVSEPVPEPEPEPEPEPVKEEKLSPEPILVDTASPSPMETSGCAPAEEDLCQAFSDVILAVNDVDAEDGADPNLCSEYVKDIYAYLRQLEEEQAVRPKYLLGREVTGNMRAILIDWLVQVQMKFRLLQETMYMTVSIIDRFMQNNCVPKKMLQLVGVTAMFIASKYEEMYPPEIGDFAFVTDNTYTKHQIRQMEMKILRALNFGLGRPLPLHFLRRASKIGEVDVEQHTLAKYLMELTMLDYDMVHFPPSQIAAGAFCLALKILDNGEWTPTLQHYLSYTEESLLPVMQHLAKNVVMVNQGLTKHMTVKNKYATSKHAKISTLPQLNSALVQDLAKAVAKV

Molecule	IC50 [1, 6] [nM]	IC50 ([2]; Homo sapiens, PC-3, MTT assay) [µM]	IC50 [3, 7] [µM]	IC50 [4, 8] [µM]	IC50 [5, 9] [nM]	IC50 ([1]; read-out: CDK1 IC50, Histone H1, 10 µM ATP) [nM]	IC50 ([2]; MTT assay) [µM]	IC50 ([3]; MTT assay) [µM]	IC50 [4] [µM]	IC50 ([5]; read-out: CDK2 IC50, GST-pRb substrate, 10 µM ATP) [nM]
CCOC(=O)NC(=O)N1CCC(Nc2nc(N[C@H]3CC[C@H](N)CC3)nc3c2ncn3C2CCCC2)CC1 [compound 173, trans-(1-{4-[2-(4-Amino-cyclohexylamino)-9-cyclopentyl-9H-purin-6-ylamino]-piperidin-1-yl}-methanoyl)-carbamic acid ethyl ester dihydrochloride]	18	2.81	2.67	0.424	30	–	–	–	–	–
N[C@H]1CC[C@H](Nc2nc(NC3CCN(C(=O)Nc4ccccc4OC(F)(F)F)CC3)c3ncn(C4CCCC4)c3n2)CC1 [compound 174, trans-4-[2-(4-Amino-cyclohexylamino)-9-cyclopentyl-9H-purin-6-ylamino]-piperidine-1-carboxylic acid (2-trifluoromethoxy-phenyl)-amide dihydrochloride]	48	0.27	0.31	0.795	89	–	–	–	–	–
N[C@H]1CC[C@H](Nc2nc(NC3CCN(C(=O)Nc4cc(C(F)(F)F)cc(C(F)(F)F)c4)CC3)c3ncn(C4CCCC4)c3n2)CC1 [compound 176, trans-4-[2-(4-Amino-cyclohexylamino)-9-cyclopentyl-9H-purin-6-ylamino]-piperidine-1-carboxylic acid (3,5-bis-trifluoromethyl-phenyl)-amide dihydrochloride]	7	0.54	0.51	0.898	378	–	–	–	–	–
CCCCCNC(=O)N1CCC(Nc2nc(N[C@H]3CC[C@H](N)CC3)nc3c2ncn3C2CCCC2)CC1 [compound 184, trans-4-[2-(4-Amino-cyclohexylamino)-9-cyclopentyl-9H-purin-6-ylamino]-piperidine-1-carboxylic acid pentylamide dihydrochloride]	77	0.71	0.71	0.377	85	–	–	–	–	–
CCCCCCNC(=O)N1CCC(Nc2nc(N[C@H]3CC[C@H](N)CC3)nc3c2ncn3C2CCCC2)CC1 [compound 185, trans-4-[2-(4-Amino-cyclohexylamino)-9-cyclopentyl-9H-purin-6-ylamino]-piperidine-1-carboxylic acid hexylamide dihydrochloride]	72	0.41	0.29	0.28	79	–	–	–	–	–
CC(=O)c1ccc(NC(=O)N2CCC(Nc3nc(N[C@H]4CC[C@H](N)CC4)nc4c3ncn4C3CCCC3)CC2)cc1 [compound 188, trans-4-[2-(4-Amino-cyclohexylamino)-9-cyclopentyl-9H-purin-6-ylamino]-piperidine-1-carboxylic acid (4-acetyl-phenyl)-amide dihydrochloride]	14	0.5	0.48	0.17	31	–	–	–	–	–
CC(=O)c1cccc(NC(=O)N2CCC(Nc3nc(N[C@H]4CC[C@H](N)CC4)nc4c3ncn4C3CCCC3)CC2)c1 [compound 189, trans-4-[2-(4-Amino-cyclohexylamino)-9-cyclopentyl-9H-purin-6-ylamino]-piperidine-1-carboxylic acid (3-acetyl-phenyl)-amide dihydrochloride]	20	1.37	1	0.066	28	–	–	–	–	–
CC(C)(C)NC(=O)N1CCC(Nc2nc(N[C@H]3CC[C@H](N)CC3)nc3c2ncn3C2CCCC2)CC1 [compound 192, trans-4-[2-(4-Amino-cyclohexylamino)-9-cyclopentyl-9H-purin-6-ylamino]-piperidine-1-carboxylic acid tert-butyl-amide dihydrochloride]	1000	1.89	1.49	0.4	237	–	–	–	–	–
N#Cc1cccc(NC(=O)N2CCC(Nc3nc(N[C@H]4CC[C@H](N)CC4)nc4c3ncn4C3CCCC3)CC2)c1 [compound 194, trans-4-[2-(4-Amino-cyclohexylamino)-9-cyclopentyl-9H-purin-6-ylamino]-piperidine-1-carboxylic acid (3-cyano-phenyl)-amide dihydrochloride]	40	0.89	0.72	0.088	15	–	–	–	–	–
CCOC(=O)c1cccc(NC(=O)N2CCC(Nc3nc(N[C@H]4CC[C@H](N)CC4)nc4c3ncn4C3CCCC3)CC2)c1 [compound 195, trans-3-[(1-{4-[2-(4-Amino-cyclohexylamino)-9-cyclopentyl-9H-purin-6-ylamino]-piperidin-1-yl} -methanoyl)-amino]-benzoic acid ethyl ester dihydrochloride]	50	0.38	0.33	0.006	28	–	–	–	–	–
Cc1cccc(Cl)c1NC(=O)N1CCC(Nc2nc(N[C@H]3CC[C@H](N)CC3)nc3c2ncn3C2CCCC2)CC1 [compound 196, trans-4-[2-(4-Amino-cyclohexylamino)-9-cyclopentyl-9H-purin-6-ylamino]-piperidine-1-carboxylic acid (2-chloro-6-methyl-phenyl)-amide dihydrochloride]	350	0.59	0.5	0.006	2	–	–	–	–	–
N[C@H]1CC[C@H](Nc2nc(NC3CCN(C(=O)NCCc4ccccc4)CC3)c3ncn(C4CCCC4)c3n2)CC1 [compound 197, trans-4-[2-(4-Amino-cyclohexylamino)-9-cyclopentyl-9H-purin-6-ylamino]-piperidine-1-carboxylic acid phenethyl-amide dihydrochloride]	200	1.09	0.91	0.381	8	–	–	–	–	–
COc1cc(NC(=O)N2CCC(Nc3nc(N[C@H]4CC[C@H](N)CC4)nc4c3ncn4C3CCCC3)CC2)cc(OC)c1OC [compound 198, trans-4-[2-(4-Amino-cyclohexylamino)-9-cyclopentyl-9H-purin-6-ylamino]-piperidine-1-carboxylic acid (3,4,5-trimethoxy-phenyl)-amide dihydrochloride]	40	31.8	2.85	0.007	20	–	–	–	–	–
N[C@H]1CC[C@H](Nc2nc(NC3CCN(C(=O)Nc4c(F)cccc4C(F)(F)F)CC3)c3ncn(C4CCCC4)c3n2)CC1 [compound 201, trans-4-[2-(4-Amino-cyclohexylamino)-9-cyclopentyl-9H-purin-6-ylamino]-piperidine-1-carboxylic acid (2-fluoro-6-trifluoromethyl-phenyl)-amide dihydrochloride]	170	1.9	1.53	0.986	41	–	–	–	–	–
CCCCNC(=O)N1CCC(Nc2nc(N[C@H]3CC[C@H](N)CC3)nc3c2ncn3C2CCCC2)CC1 [compound 204, trans-4-[2-(4-Amino-cyclohexylamino)-9-cyclopentyl-9H-purin-6-ylamino]-piperidine-1-carboxylic acid butylamide dihydrochloride]	200	2.64	2.53	0.039	51	–	–	–	–	–
N[C@H]1CC[C@H](Nc2nc(NC3CCN(C(=O)NC4CCCCC4)CC3)c3ncn(C4CCCC4)c3n2)CC1 [compound 205, trans-4-[2-(4-Amino-cyclohexylamino)-9-cyclopentyl-9H-purin-6-ylamino]-piperidine-1-carboxylic acid cyclohexylamide dihydrochloride]	290	1.63	1.84	3.25	232	–	–	–	–	–
CCCNC(=O)N1CCC(Nc2nc(N[C@H]3CC[C@H](N)CC3)nc3c2ncn3C2CCCC2)CC1 [compound 206, trans-4-[2-(4-Amino-cyclohexylamino)-9-cyclopentyl-9H-purin-6-ylamino]-piperidine-1-carboxylic acid propylamide dihydrochloride]	210	2.89	2.68	0.085	7	–	–	–	–	–
Cc1ccccc1NC(=O)N1CCC(Nc2nc(N[C@H]3CC[C@H](N)CC3)nc3c2ncn3C2CCCC2)CC1 [compound 208, trans-4-[2-(4-Amino-cyclohexylamino)-9-cyclopentyl-9H-purin-6-ylamino]-piperidine-1-carboxylic acid (2-methyl-phenyl)-amide dihydrochloride]	180	0.68	0.47	0.073	8	–	–	–	–	–
CC(C)n1cnc2c(NC3CCN(C(=O)Nc4ccc(OC(F)(F)F)cc4)CC3)nc(N[C@H]3CC[C@H](N)CC3)nc21 [compound 211, trans-4-[2-(4-Amino-cyclohexylamino)-9-isopropyl-9H-purin-6-ylamino]-piperidine-1-carboxylic acid (4-trifluoromethoxy-phenyl)-amide dihydrochloride]	197	0.56	0.69	7	612	–	–	–	–	–
trans 1-{4-[2-(4-Amino-cyclohexylamino)-9-cyclopentyl-9H-purin-6-ylamino]-piperidin-1-yl}-3-(2,5-dimethoxy-phenyl)-propan-1-one dihydrochloride [compound 34]	–	–	–	–	–	31	0.67	0.69	0.997	58
